Results as given in ChEMBL document CHEMBL1201862, “PubChem BioAssay data set” (2004).
Activity calls are given as the source filed them. Cut-off read from the data, not from the text of the source, for most assays here: actives have a measured EC50 and inactives only a lower limit.

What was measured:
[1] = Luminescence Cell-Based Dose Confirmation HTS to Identify Inhibitors of Platelet Dense Granule Release. [Related pubchem assays: 1663 (Primary HTS), 1678 (Summary of Project)]; format: functional
[2] = target: Luciferin 4-monooxygenase (Photinus pyralis, UniProt P08659); assay: firefly luciferase enzyme inhibitors, dose response, biochemical, luminescence (AID 1891)
[3] = HEp-2 cell cytotoxicity, dose response, cytotoxicity control for RSV inhibitor project, HTS (AID 2410); format: functional; settings: human respiratory syncytial virus
[4] = growth suppression of PTEN-null colon cells, dose response, cell-based, HCT116 PTEN knockout (AID 1047); format: functional;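 note: HCT116 colon tumor cells with PTEN knocked out; cells exposed to compound for 60 hours before readout; potency for loss of cell viability measured by luminescence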
[5] = growth suppression of beta-catenin-knockout colon cells, dose response, cell-based, HCT116, human colon tumor (AID 1045); format: functional;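 note: HCT116 colon tumor cells with beta catenin knocked out; cells exposed to compound for 60 hours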
[6] = target: T1, Rac GTPase-activating protein 1 (Homo sapiens, UniProt Q9H0H5); assay: MgcRacGAP GTPase-activating activity inhibitors, confirmation, biochemical, ADP Hunter fluorescence, primary and confirmatory (AID 624330); format: functional
T1 sequence (Q9H0H5 whole entry): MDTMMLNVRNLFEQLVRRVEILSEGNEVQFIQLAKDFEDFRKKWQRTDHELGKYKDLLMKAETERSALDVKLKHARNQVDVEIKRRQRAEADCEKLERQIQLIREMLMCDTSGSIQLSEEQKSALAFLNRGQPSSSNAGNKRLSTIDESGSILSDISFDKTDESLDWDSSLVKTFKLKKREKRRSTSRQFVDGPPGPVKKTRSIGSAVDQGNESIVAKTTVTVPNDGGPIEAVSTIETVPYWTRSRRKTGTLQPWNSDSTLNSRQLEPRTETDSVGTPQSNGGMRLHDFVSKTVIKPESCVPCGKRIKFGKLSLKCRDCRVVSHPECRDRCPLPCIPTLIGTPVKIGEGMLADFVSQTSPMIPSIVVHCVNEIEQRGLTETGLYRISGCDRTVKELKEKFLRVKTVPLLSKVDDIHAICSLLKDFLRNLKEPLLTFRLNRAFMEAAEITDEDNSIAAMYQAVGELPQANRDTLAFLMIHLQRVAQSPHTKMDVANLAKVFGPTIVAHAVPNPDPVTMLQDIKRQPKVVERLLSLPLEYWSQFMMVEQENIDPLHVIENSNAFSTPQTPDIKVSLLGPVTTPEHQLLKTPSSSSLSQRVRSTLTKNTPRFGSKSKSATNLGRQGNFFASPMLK

INS1 = assay: beta cell apoptosis inhibitors, cytokine rescue, dose response, luminescence, retest (AID 449756); format: functional, cell-based; settings: Rattus norvegicus;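 note: cell death triggered by IL-1 beta plus TNF-alpha plus IFN-gamma mixture; protective hits raise ATP signal compared with cytokine alone wells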
[7] = microbe, parasite or virus in culture; format: functional; settings: Mycobacterium tuberculosis
[8] = cytotoxicity toward NIH3T3 fibroblasts, dose response, counter-screen, cell-based, ATP luminescence, mouse fibroblasts (AID 2010); format: functional;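 note: cells exposed to compound for about 90 hours before reading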
[9] = inhibitors of intracellular T. cruzi replication, confirmation, NIH3T3 host cells, beta-gal luminescence (AID 2044); format: functional, cell-based;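 note: intracellular parasites grown in NIH/3T3 mouse fibroblasts as host cells; luminescent beta-galactosidase reporter signal from transgenic T. cruzi replicating inside host cells; inhibitors lower the luminescence signal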
Streptokinase A = target: T2, Streptokinase A (Streptococcus pyogenes serotype M1, UniProt P10520); assay: S. pyogenes streptokinase expression inhibitors, potency, dose response, plasminogen activation absorbance, OD405 (AID 1914); format: functional, Streptococcus pyogenes M1 GAS;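 note: secreted streptokinase activity via plasminogen activation per viability signal from cell pellet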
T2 sequence (P10520 whole entry): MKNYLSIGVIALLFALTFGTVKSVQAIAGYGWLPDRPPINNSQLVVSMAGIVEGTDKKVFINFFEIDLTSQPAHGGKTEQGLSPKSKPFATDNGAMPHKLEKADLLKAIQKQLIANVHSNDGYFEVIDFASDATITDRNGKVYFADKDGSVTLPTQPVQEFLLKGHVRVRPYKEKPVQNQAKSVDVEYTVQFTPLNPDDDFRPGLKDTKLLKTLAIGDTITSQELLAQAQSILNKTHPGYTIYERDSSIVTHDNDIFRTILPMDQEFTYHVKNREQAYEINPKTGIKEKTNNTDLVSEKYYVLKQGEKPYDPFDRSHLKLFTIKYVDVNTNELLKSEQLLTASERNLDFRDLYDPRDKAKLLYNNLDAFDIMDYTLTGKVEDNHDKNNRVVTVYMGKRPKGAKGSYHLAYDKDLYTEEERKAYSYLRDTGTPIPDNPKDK

[10] = system: Streptococcus sp. 'group A'; assay: growth inhibition of control SK(-) GAS strain, dose response, counter-screen for streptokinase expression inhibitor project, luminescence, kanamycin, BacTiterGlo, confirmation (AID 1900); format: functional, organism-based
Streptococcus = assay: Group A Streptococcus viability loss, dose response, counter-screen for streptokinase expression inhibitor project, luminescence, BacTiterGlo (AID 1915); format: functional, organism-based;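 note: potency for reduction of bacterial viability or growth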
[11] = NIH-3T3 fibroblast cytotoxicity, dose response, cytotoxicity control, cell-based, fluorescence, Alamar Blue, secondary assay (AID 2327); format: functional;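 note: NIH-3T3 mouse fibroblasts cultured with fluconazole at 8 µg/mL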
[12] = C. albicans growth with fluconazole, confirmation, fluorescence, retest (AID 2467); format: functional, cell-based
[13] = Luminescence Cell-Based Dose Retest to Confirm Inhibitors of Cancer Stem Cells. [Related pubchem assays (depositor defined):AID2717, AID2721]; format: functional; settings: Homo sapiens
[14] = target: T3, Ubiquitin-conjugating enzyme E2 N (Homo sapiens, UniProt P61088); format: functional;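 note: Dose-response confirmation in a TR-FRET assay detecting UBC13-driven polyubiquitin chain formation, inhibition measured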
T3 sequence (P61088 whole entry): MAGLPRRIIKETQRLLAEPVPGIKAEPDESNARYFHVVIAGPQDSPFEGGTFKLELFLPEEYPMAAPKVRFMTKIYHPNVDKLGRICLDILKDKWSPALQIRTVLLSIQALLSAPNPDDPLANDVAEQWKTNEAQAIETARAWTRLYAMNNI

Sequence of Luciferin 4-monooxygenase (P08659 whole entry): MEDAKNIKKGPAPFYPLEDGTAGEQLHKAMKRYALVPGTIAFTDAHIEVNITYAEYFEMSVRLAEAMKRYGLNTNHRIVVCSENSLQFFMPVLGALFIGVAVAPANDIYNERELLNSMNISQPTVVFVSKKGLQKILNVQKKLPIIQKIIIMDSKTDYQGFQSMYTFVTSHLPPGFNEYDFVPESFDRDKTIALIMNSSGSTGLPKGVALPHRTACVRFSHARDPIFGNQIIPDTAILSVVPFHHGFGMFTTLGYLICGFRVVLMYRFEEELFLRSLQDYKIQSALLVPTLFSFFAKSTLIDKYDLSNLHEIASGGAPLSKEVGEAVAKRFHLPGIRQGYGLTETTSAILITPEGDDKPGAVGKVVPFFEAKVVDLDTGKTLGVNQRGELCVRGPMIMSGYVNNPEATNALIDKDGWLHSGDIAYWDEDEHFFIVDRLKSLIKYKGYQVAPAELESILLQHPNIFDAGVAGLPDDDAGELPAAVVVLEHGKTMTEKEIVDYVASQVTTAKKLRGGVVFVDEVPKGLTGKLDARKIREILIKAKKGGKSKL

SMILES: Cc1ccc(CNC(=O)C2CCCN(c3nn4c(=O)cc(C)nc4s3)C2)cc1 (stereo not drawn)
- EC50 [1]: > 112 µM (not active)
- EC50 [2]: > 112 µM (not active)

SMILES: COC(=O)COc1ccc(S(=O)(=O)NCc2cccnc2)cc1C
- EC50 [1]: 34.3 µM (active)
- EC50 [2]: > 112 µM (not active)

SMILES: Cc1ccc(/C=C/C2=NN(Cc3ccccc3Cl)C(=O)CC2)cc1
- CC50 [3]: 16.6 µM (active)

SMILES: CN1C(=O)C(CC(=O)Nc2ccccc2F)N(NC(=O)c2ccc(Br)cc2)C1=S (stereo not drawn)
- CC50 [3]: 6.39 µM (active)

SMILES: Cc1ccc(-c2nnc(S)n2/N=C/c2c(C)nn(-c3ccccc3)c2C)cc1
- EC50 [4]: 25.8 µM (active)
- EC50 [5]: 26 µM (active)

SMILES: COc1cccc(CNCc2ccco2)c1O
- IC50 [6]: 117 µM (active)

SMILES: CSc1ccccc1C(=O)Nc1ncc(C)s1
- EC50 [1]: 65.8 µM (active)
- EC50 [2]: > 112 µM (not active)

SMILES: CC[C@H](C)Cc1cn([C@@H](CCCCNC(=O)OC(C)(C)C)C(=O)NCCCCCCCCCCC(=O)N2CCN(C(=O)OC(C)(C)C)CC2)nn1
- AC50 (INS1): 7.02 µM (active)

SMILES: N#C/C(=C\c1ccc(-c2ccc(Br)cc2)o1)C(=O)NCCc1c[nH]c2ccccc12
- CC50 [7]: > 40 µM (active)

SMILES: C#CCN(C(=O)c1cc(COc2cccc(C(F)(F)F)c2)on1)C1CCCCC1
- AC50 (INS1): > 120 µM (inactive)

SMILES: CCn1c(=O)c(C(=O)Nc2ccccn2)c(O)c2ccccc21
- AC50 (INS1): 30.2 µM (active)

SMILES: O=[N+]([O-])c1ccc(-n2cnc3ccccc32)c([N+](=O)[O-])c1
- EC50 [8]: > 60 µM (inconclusive)
- EC50 [9]: 0.485 µM (active)
- AC50 (INS1): 14.3 µM (active)

SMILES: CC(C)c1ccc2[nH]c(O)c(N=NC(=O)c3cccc(S(=O)(=O)N4CCCCC4)c3)c2c1
- EC50 [8]: > 60 µM (not active)
- EC50 [9]: 0.58 µM (active)
- EC50 (Streptokinase A): > 150 µM (not active)
- CC50 [3]: 7.69 µM (active)
- EC50 [10]: 4.39 µM (active)
- EC50 (Streptococcus): 110 µM (active)

SMILES: O=[N+]([O-])c1ccc(N=Nc2ccc(O)cc2O)cc1
- EC50 [1]: 3 µM (active)
- EC50 [2]: 1.05 µM (active)
- EC50 (Streptokinase A): > 50 µM (not active)
- EC50 [10]: 2.44 µM (active)
- EC50 (Streptococcus): 24.6 µM (active)

SMILES: C/N=c1\scc(C)n1/N=C/c1cc(Br)c(O)c(Br)c1
- IC50 [6]: 77 µM (active)

SMILES: N/N=C(\Cc1cscn1)c1ccc(O)cc1O
- EC50 [1]: 62.6 µM (active)
- IC50 [6]: 53.3 µM (active)
- EC50 [2]: > 112 µM (not active)

SMILES: COc1cccc(-c2nc3ccc(O)cc3c(=O)o2)c1
- EC50 [1]: 9.19 µM (active)
- EC50 [2]: 5.39 µM (active)

SMILES: CCOC(=O)c1sc(NC(=O)Nc2ccc(Cl)cc2)nc1C
- EC50 [4]: 63.5 µM (active)
- EC50 [5]: 80.8 µM (active)

SMILES: O=C(CC1(O)C(=O)Nc2ccccc21)c1ccccc1 (stereo not drawn)
- EC50 [1]: > 112 µM (not active)
- EC50 [2]: > 112 µM (not active)

SMILES: CC(C)C[C@H]1CN=C(Nc2ccccc2)N1CCC(C)c1ccccc1 (stereo partly drawn)
- AC50 (INS1): 9.62 µM (active)

SMILES: COc1cc(/C=N/NC(=O)CCC(=O)Nc2ccc(F)cc2)ccc1O
- IC50 [6]: 35.8 µM (active)

SMILES: O=C(NCc1ccccn1)C(=O)Nc1nc(C23CC4CC(CC(C4)C2)C3)cs1
- EC50 [10]: 1.66 µM (active)
- EC50 (Streptococcus): 6.91 µM (active)
- CC50 [7]: 36 µM (active)

SMILES: COc1ccc(C2Nc3ccc4ccccc4c3-c3c2c(=O)oc2ccccc32)cc1 (stereo not drawn)
- EC50 [4]: 9 µM (active)
- EC50 [8]: > 60 µM (not active)
- EC50 [9]: 0.204 µM (active)
- EC50 [5]: 9.13 µM (active)

SMILES: Cc1ccc(C(=O)N2N=C(c3ccc(NS(C)(=O)=O)cc3)CC2c2cccs2)cc1 (stereo not drawn)
- CC50 [7]: > 40 µM (active)

SMILES: CC1(C)CC(N2CCN(Cc3ccccc3)CC2)=CC(=[N+]2CCCCC2)C1
- EC50 [8]: > 60 µM (not active)
- EC50 [9]: 0.289 µM (active)
- EC50 [11]: > 160 µM (inactive)
- AC50 (INS1): 2.16 µM (active)
- EC50 [12]: 2.72 µM (active)

SMILES: O=C(c1ccco1)N1CCN(C(=O)c2ccc(COc3ccc(F)cc3)o2)CC1
- EC50 [1]: > 112 µM (not active)
- EC50 [2]: > 112 µM (not active)

SMILES: O=C(Nc1cccc(O)c1)C(=O)Nc1ccccn1
- EC50 [1]: 1.82 µM (active)
- EC50 [2]: 7.77 µM (active)

SMILES: Clc1nc2ncnc-2c[nH]1
- EC50 [1]: > 112 µM (not active)
- EC50 [2]: > 112 µM (not active)

SMILES: CCOc1ccccc1/C=c1\sc2ncnn2c1=O
- IC50 [6]: 48.7 µM (active)

SMILES: CCOC(=O)C1CCN(C(=O)Cn2nc(C)n3c(cc4cc(F)ccc43)c2=O)CC1
- EC50 [1]: 15.8 µM (active)
- EC50 [2]: > 112 µM (not active)

SMILES: O=C(Cn1c(=O)oc2cc(S(=O)(=O)N3CCCCC3)ccc21)N1CCc2ccccc21
- EC50 [4]: 18.4 µM (active)
- EC50 [5]: 16.9 µM (active)

SMILES: Oc1ccc(Cc2ccc(Cl)cc2)c(O)c1
- IC50 [6]: 69.5 µM (active)

SMILES: Cc1cccc2c(N)c3c(nc12)N(C)CC3
- IC50 [6]: 115 µM (active)

SMILES: CC12CCC(c3c(C(=O)Nc4nccs4)nn(-c4ccccc4)c31)C2(C)C (stereo not drawn)
- EC50 [4]: 38.1 µM (active)
- EC50 [5]: 24.2 µM (active)
- EC50 (Streptokinase A): 28.5 µM (active)
- EC50 [10]: 6.56 µM (active)
- EC50 (Streptococcus): > 150 µM (not active)

SMILES: Cc1cc2cc(C)c3nnc(SCC(=O)Nc4ccc(S(=O)(=O)N5CCCCC5)cc4)n3c2cc1C
- EC50 [4]: 7.79 µM (active)
- EC50 [5]: 7.24 µM (active)

SMILES: Cc1ccc2nc(-c3cccc(-c4cccc(Cl)c4)c3)c(NCc3ccccc3)n2c1
- AC50 [13]: 4.01 µM (active)
- AC50 (INS1): 7.9 µM (active)

SMILES: COc1ccc(Br)cc1/C=N/n1c(C)nnc1C
- EC50 [1]: > 112 µM (not active)
- EC50 [2]: > 112 µM (not active)

SMILES: COCC(=O)O[C@]1(CCN(C)CCCc2nc3ccccc3[nH]2)CCc2cc(F)ccc2[C@@H]1C(C)C
- IC50 [14]: > 20 µM (inactive)
- CC50 [7]: 14.2 µM (active)

SMILES: COc1ccccc1NC(=O)Cc1c(F)cccc1Cl
- EC50 [1]: 70.8 µM (active)
- EC50 [2]: > 112 µM (not active)

SMILES: Nc1ncccc1OCc1ccc(Cl)c(Cl)c1
- CC50 [3]: 9.61 µM (active)
